Active and inactive are the calls of the source. The calls are words filed in the database; no cut-off is given here.
How the values were obtained:
[1] = AUC in rat at 2 mg/kg, po; assay type: ADME, organism-based; set-up: dose 2 mg/kg, route oral; settings: plasma
[2] = molecular target: T1, Probable G-protein coupled receptor 142 (Homo sapiens, UniProt Q7Z601); assay: Agonist activity at human GPR142 expressed in HEK293 cells assessed as inositol phosphate accumulation after 1 hr by scintillation counting; assay type: functional, cell-based
T1 sequence (Q7Z601 whole entry): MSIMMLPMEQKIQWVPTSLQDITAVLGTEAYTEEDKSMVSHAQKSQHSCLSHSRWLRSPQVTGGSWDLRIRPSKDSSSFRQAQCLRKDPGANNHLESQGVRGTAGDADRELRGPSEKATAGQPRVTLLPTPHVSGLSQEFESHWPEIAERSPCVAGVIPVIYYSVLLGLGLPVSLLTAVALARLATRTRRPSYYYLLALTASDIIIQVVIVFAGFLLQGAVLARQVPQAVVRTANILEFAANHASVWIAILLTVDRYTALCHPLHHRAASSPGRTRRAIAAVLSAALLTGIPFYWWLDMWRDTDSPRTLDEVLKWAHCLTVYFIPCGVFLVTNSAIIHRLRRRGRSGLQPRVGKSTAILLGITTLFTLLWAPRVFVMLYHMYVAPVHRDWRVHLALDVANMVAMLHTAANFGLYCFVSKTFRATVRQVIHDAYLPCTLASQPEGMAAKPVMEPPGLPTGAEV

[3] = Volume of distribution at steady state in rat at 0.5 mg/kg, iv; assay type: ADME, organism-based; set-up: dose 0.5 mg/kg, route intravenous; settings: in vivo, read-out: Vdss
[4] = molecular target: T2, Probable G-protein coupled receptor 142 (Homo sapiens) (UniProt Q7Z601); assay: Agonist activity at human GPR142 expressed in HEK293 cells assessed as inositol phosphate accumulation at 10 uM after 1 hr by scintillation counting; assay type: functional, cell-based
T2 sequence (whole entry): T1 sequence (Q7Z601 whole entry)

[5] = Clearance in rat at 0.5 mg/kg, iv; assay type: ADME, organism-based; set-up: dose 0.5 mg/kg, route intravenous; settings: in vivo
[6] = Mean residence time in rat at 2 mg/kg, po; assay type: ADME, organism-based; set-up: dose 2 mg/kg, route oral; settings: in vivo
[7] = Metabolic stability of human microsomes assessed as compound turnover at 1 uM after 30 mins by LC-MS analysis; assay type: ADME, Microsome; settings: read-out: Drug metabolism
[8] = AUC in rat at 0.5 mg/kg, iv; assay type: ADME, organism-based; set-up: dose 0.5 mg/kg, route intravenous; settings: plasma
[9] = Metabolic stability of rat microsomes assessed as compound turnover at 1 uM after 30 mins by LC-MS analysis; assay type: ADME, Microsome; settings: read-out: Drug metabolism
[10] = Half life in rat at 0.5 mg/kg, iv; assay type: ADME, organism-based; set-up: dose 0.5 mg/kg, route intravenous; settings: in vivo
[11] = Oral bioavailability in rat at 2 mg/kg; assay type: ADME, organism-based; settings: in vivo
[12] = molecular target: T2, Probable G-protein coupled receptor 142 (Homo sapiens); assay: Agonist activity at human GPR142 expressed in HEK293 cells assessed as inositol phosphate accumulation after 1 hr by scintillation counting in presence of 100% serum; assay type: functional, cell-based
[13] = Volume of distribution at steady state in rat at 0.67 mg/kg, iv; assay type: ADME, organism-based; set-up: dose 0.67 mg/kg, route intravenous; settings: in vivo, read-out: Vdss
[14] = Half life in rat at 0.67 mg/kg, iv; assay type: ADME, organism-based; set-up: dose 0.67 mg/kg, route intravenous; settings: in vivo
[15] = Clearance in rat at 0.67 mg/kg, iv; assay type: ADME, organism-based; set-up: dose 0.67 mg/kg, route intravenous; settings: in vivo
[16] = AUC in rat at 0.67 mg/kg, iv; assay type: ADME, organism-based; set-up: dose 0.67 mg/kg, route intravenous; settings: plasma
[17] = molecular target: T3, Probable G-protein coupled receptor 142 (Mus musculus) (UniProt Q7TQN9); assay: Partial agonist activity at mouse GPR142 expressed in HEK293 cells relative to control; assay type: functional, cell-based
T3 sequence (whole entry): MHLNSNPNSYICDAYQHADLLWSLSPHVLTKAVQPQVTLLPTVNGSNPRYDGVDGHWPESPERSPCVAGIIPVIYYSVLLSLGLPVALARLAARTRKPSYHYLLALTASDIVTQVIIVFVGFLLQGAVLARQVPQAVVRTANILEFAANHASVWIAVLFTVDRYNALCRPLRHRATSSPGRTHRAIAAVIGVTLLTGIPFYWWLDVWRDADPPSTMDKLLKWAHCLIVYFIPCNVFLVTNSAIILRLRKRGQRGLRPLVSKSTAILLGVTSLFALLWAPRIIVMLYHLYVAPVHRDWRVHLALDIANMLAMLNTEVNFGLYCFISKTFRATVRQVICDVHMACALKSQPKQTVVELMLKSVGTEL

[18] = Clearance in rat; assay type: ADME, organism-based; settings: in vivo

SMILES	EC50 [2] [nM]	Emax [4] [%]	metabolised at 0.5 h, 1 µM [7] [%]	metabolised at 0.5 h, 1 µM [9] [%]	other results
O=C(Nc1nnc(-c2ccncc2)s1)[C@H](Cc1ccccc1)NCc1cscn1	86	115	14	10	AUC [1]: 480 ng·h/mL; Vd [3]: 0.21 L/kg; clearance [5]: 7.33 mL/min/kg; MRT [6]: 1.93 h; AUC [8]: 1240 ng·h/mL; half-life [10]: 1.2 h; bioavailability [11]: 10%; Activity [12]: Active
O=C(Nc1cc(-c2ccncc2)c[nH]c1=O)[C@H](Cc1ccccc1)NCc1ncccn1	440	95	90	99	–
C[C@H](N[C@@H](Cc1ccccc1)C(=O)Nc1cc(-c2ccncc2)c[nH]c1=O)c1ccccn1	220	107	100	99	–
O=C(Nc1cc(-c2ccncc2)c[nH]c1=O)[C@H](Cc1ccccc1)NC1(c2ncccn2)CC1	99	114	21	67	–
CC(C)(N[C@@H](Cc1ccccc1)C(=O)Nc1cc(-c2ccncc2)c[nH]c1=O)c1ccccn1	9450	57	> 95	100	–
O=C(Nc1cc(-c2ccncc2)c[nH]c1=O)[C@H](Cc1ccccc1)NCc1c[nH]cn1	110	107	60	96	–
CNc1cc(-c2nnc(NC(=O)[C@H](Cc3ccccc3)NCc3cscn3)s2)ccn1	36	96	58	66	AUC [1]: 1730 ng·h/mL; Vd [13]: 0.23 L/kg; half-life [14]: 1.2 h; clearance [15]: 3.83 mL/min/kg; MRT [6]: 2.36 h; AUC [16]: 3030 ng·h/mL; Emax [17]: 37%; bioavailability [11]: 36%; Activity [12]: inactive
O=C(O)Cn1cc(-c2ccncc2)cc(NC(=O)[C@H](Cc2ccccc2)NC2(c3ccccn3)CC2)c1=O	260	83	10	12	clearance [18]: 83.3 mL/min/kg
O=C(Nc1cc(-c2ccncc2)c[nH]c1=O)[C@H](Cc1ccccc1)NCc1cscn1	930	–	68	99	Activity [12]: Active
O=C(Nc1cc(-c2ccncc2)c[nH]c1=O)[C@H](Cc1ccccc1)NCCc1ccccn1	1320	76	100	100	–
CCC(N[C@@H](Cc1ccccc1)C(=O)Nc1cc(-c2ccncc2)c[nH]c1=O)c1ccccn1 (mixture of isomers)	730	81	85	95	–
O=C(Nc1cc(-c2ccncc2)c[nH]c1=O)[C@H](Cc1ccccc1)NCc1ccccn1	95	155	95	95	–
O=C(Nc1cc(-c2ccncc2)c[nH]c1=O)[C@H](Cc1ccccc1)NC[C@H]1CCCO1	390	78	83	98	–
O=C(Nc1cc(-c2ccncc2)c[nH]c1=O)[C@H](Cc1ccccc1)NCC1CCS(=O)(=O)CC1	20000	91	21	58	–
CN(C)CCn1cc(-c2ccncc2)cc(NC(=O)[C@H](Cc2ccccc2)NC2(c3ccccn3)CC2)c1=O	280	118	19	22	clearance [18]: 51.7 mL/min/kg
Cc1nc(C2(N[C@@H](Cc3ccccc3)C(=O)Nc3cc(-c4ccncc4)c[nH]c3=O)CC2)cs1	200	106	64	74	–
Cn1ccc(CN[C@@H](Cc2ccccc2)C(=O)Nc2cc(-c3ccncc3)c[nH]c2=O)n1	210	92	90	100	–
Cc1cc(CN[C@@H](Cc2ccccc2)C(=O)Nc2cc(-c3ccncc3)c[nH]c2=O)no1	2200	93	78	95	–
Cn1cncc1-c1nnc(NC(=O)[C@H](Cc2ccccc2)NCc2cscn2)s1	180	86	19	35	clearance [5]: 28.3 mL/min/kg; bioavailability [11]: 19%
C[C@@H](N[C@@H](Cc1ccccc1)C(=O)Nc1cc(-c2ccncc2)c[nH]c1=O)c1ccccn1	6000	60	95	95	–
COc1ncc(-c2ccncc2)cc1NC(=O)[C@H](Cc1ccccc1)NC1(c2ccccn2)CC1	350	123	15	54	Activity [12]: inactive; clearance [18]: 21.7 mL/min/kg
O=C(Nc1nnc(-c2cncs2)s1)[C@H](Cc1ccccc1)NCc1cscn1	390	74	29	57	clearance [5]: 40 mL/min/kg; bioavailability [11]: 32%
O=C(Nc1cc(-c2ccncc2)c[nH]c1=O)[C@H](Cc1ccccc1)NCCC1CCOCC1	1060	84	66	80	–
O=C1CC[C@H](CN[C@@H](Cc2ccccc2)C(=O)Nc2cc(-c3ccncc3)c[nH]c2=O)N1	2230	78	19	67	–

— ChEMBL document CHEMBL2163318, “Phenylalanine derivatives as GPR142 agonists for the treatment of type II diabetes” (Bioorg Med Chem Lett, 2012)
